From patent publication EP3981864A1, “DETERGENT COMPOSITION” (priority 2020, dated 2022)

Tests used:
[1] = molecular target: T1, Nicotiana tabacum αDOX (SEQ ID NO: 6), fatty acid alpha-dioxygenase, 082031, N-terminal His-tag variant SEQ ID NO: 259 (Nicotiana tabacum, UniProt A0A1S3ZX38); assay: Alpha-dioxygenase activity assay (oxygen consumption, TON); assay type: biochemical; settings: fatty acid 100 µM, enzyme 6 ppm, 50 mM HEPES pH 9.0, 37°C; initial rate of oxygen consumption / enzyme concentration
T1 construct: made in house; host or cells: Escherichia coli BL21 (DE3), pET30a
T1 sequence (A0A1S3ZX38 1-643): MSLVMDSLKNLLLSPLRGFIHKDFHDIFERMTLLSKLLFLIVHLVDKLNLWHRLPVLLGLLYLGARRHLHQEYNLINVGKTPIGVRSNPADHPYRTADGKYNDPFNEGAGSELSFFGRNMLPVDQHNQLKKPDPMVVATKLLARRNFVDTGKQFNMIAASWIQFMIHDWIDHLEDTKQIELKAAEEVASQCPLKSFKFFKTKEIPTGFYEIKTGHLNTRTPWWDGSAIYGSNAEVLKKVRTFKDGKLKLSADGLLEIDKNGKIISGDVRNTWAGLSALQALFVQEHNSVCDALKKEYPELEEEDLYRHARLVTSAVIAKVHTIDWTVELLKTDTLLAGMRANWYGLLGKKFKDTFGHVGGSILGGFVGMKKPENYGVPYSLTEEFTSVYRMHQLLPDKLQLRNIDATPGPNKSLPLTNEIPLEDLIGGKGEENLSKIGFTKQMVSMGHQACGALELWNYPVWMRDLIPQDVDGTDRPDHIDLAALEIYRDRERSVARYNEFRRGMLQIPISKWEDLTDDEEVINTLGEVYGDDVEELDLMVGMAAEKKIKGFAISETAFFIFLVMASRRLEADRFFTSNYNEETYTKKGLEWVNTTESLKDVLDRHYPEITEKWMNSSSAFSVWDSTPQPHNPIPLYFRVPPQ
From the text: (§1) Nicotiana tabacum αDOX (SEQ ID NO: 6) is a fatty acid alpha-dioxygenase that converts fatty acids into the corresponding 2-hydroperoxy fatty acids and is included as an example of the present invention. A codon optimized gene (SEQ ID NO: 258) encoding for an alpha-dioxygenase variant (SEQ ID NO: 259), including an N-terminal amino acid sequence containing a His-tag was designed and synthesized by Genscript. After gene synthesis, the protein was expressed and purified. In brief, the complete synthetic gene sequence was subcloned into a pET30a vector using the NdeI/HindIII cloning sites. For heterologous expression, Escherichia coli BL21 (DE3) cells were transformed with the recombinant plasmid and a single colony was inoculated into LB medium containing kanamycin (50 mg/L). A pre-starter culture was then inoculated into flasks containing Magic Media (Thermo Fisher, Catalog # K6803) supplemented with kanamycin (50 mg/L) and incubated at 16 °C for 72 h. At an OD600nm = 0.5 - 1.0, 5-aminolevulinic acid (final concentration 0.5 mM) was added. Cells were harvested by centrifugation at 5000 rpm and 4°C and the pellet was lysed using a bacterial cell lysis buffer (B-PER - Themo Fisher, Waltham, MA). After centrifugation, the supernatant was collected, and the protein was purified by one-step purification using HisPur™ Ni-NTA Spin Columns (Thermo Scientific, Catalog # 88226) and standard protocols known in the art. The protein was concentrated using a 10 kDa MW cutoff Amicon Ultra centrifugal filter unit (Millipore Sigma, Catalog# UFC901024), followed by desalting using a disposable PD-10 desalting column (GE Healthcare Life Sciences, Catalog# 17085101) and a buffer containing 50 mM Tris-HCl, 500 mM NaCl, and 10% Glycerol at pH 8.0. […]
(§2) Reactions with alpha-dioxygenases were performed as follows. […] The reaction was incubated for up to 10 minutes at 37°C with 200 rpm agitation and the conversion was monitored using an oxygen sensor. The TON (in s-1) were calculated as the ratio between the initial rate of oxygen consumption (in µM/s) and the concentration of enzyme (in µM). […]

[2] = tested on: Gossypium raimondii αDOX (SEQ ID NO: 5), fatty acid alpha-dioxygenase, A0A0D2W0W0, N-terminal His-tag variant SEQ ID NO: 257; assay: as above; assay type: biochemical; settings: fatty acid 100 µM, enzyme 6 ppm, 50 mM HEPES pH 9.0, 37°C; initial rate of oxygen consumption / enzyme concentration
From the text: as §1, with “Gossypium raimondii αDOX” for “Nicotiana tabacum αDOX”, “NO: 5)” for “NO: 6)”, “NO: 256)” for “NO: 258)”, “NO: 257),” for “NO: 259),”
as §2

## CCCCCCCC/C=C\CCCCCCCC(=O)O [Oleic Acid]
[1]
  Oleic Acid, TON: 0.78 s⁻¹
[2]
  Oleic Acid, TON: 1.68 s⁻¹

## CCCCCCCCCCCCCCCC(=O)O [Palmitic Acid]
[1]
  Palmitic Acid, TON: 3.07 s⁻¹
[2]
  Palmitic Acid, TON: 2.56 s⁻¹

## CCCCCCCCCCCCCCCCCC(=O)O [Stearic Acid]
[1]
  Stearic Acid, TON: 2.66 s⁻¹
[2]
  Stearic Acid, TON: 1.68 s⁻¹
